Assay results as given in patent US6596712B2, “Treatment of carcinomas using squalamine in combination with other anti-cancer agents or modalities” (Genaera Corporation, priority 1996, dated 2003).

How the values were obtained:
[1] = tested on: LNCaP cells; test: LNCaP xenograft post-orchiectomy (Example 6); format: in vivo, athymic mice; settings: 20 mg/kg/day for six to ten weeks from castration
Source text: LNCaP cells admixed with Matrigelm were implanted subcutaneously in 52 athymic mice. Those that developed measurable tumors and sufficient elevations in serum prostate specific antigen (“PSA”) (measured using a standard commercially available kit such as from Abbott Diagnostics (St. Louis, Mo.)) underwent orchiectomy. Subsequent to castration, these animals were distributed among the four groups (1-4) outlined below: and an additional control cohort of mice which were castrated but never treated with squalamine.
In the majority of animals, PSA levels fell to zero at time of castration. By three weeks they began to rebound and continued to rise steadily until the animals succumbed or were sacrificed. In these same mice, tumor size tended to plateau at time of orchiectomy, before beginning to increase in size correspondingly with PSA rebound. The serum PSA curve and tumor volume measurements from two members of this last control cohort are illustrated in FIG. 15a and b, respectively.
Ten mice began treatment with squalamine concomitant with the fall in PSA after castration (Group 1). Of these, three never experienced a post-orchiectomy PSA nadir, and one experienced an early death, of unknown etiology. Six animals, however, were treated with squalamine (at 20 mg/kg/day) for a range of six to ten weeks. […]

[2] = tested on: Human androgen dependent LNCaP cells; test: LNCaP xenograft with hormonal ablation (Example 7); format: in vivo, athymic mice
Description: Human androgen dependent LNCaP cells (2×10^6 cells/flank in both flanks) were implanted subcutaneously with an equal volume of Matrigel™ in forty athymic mice. These animals were followed with periodic bleedings until serum human PSA levels exceeded 100 ng/mL and tumor volume measurements exceeded 1000 mm^3 (approximately six weeks after implantation). All animals were then surgically castrated and were randomized into five treatment groups with 8-10 animals per group. One group of animals was not treated further (controls), while a second group immediately began daily intraperitoneal injection of 20 mg/kg/day squalamine (five days per week with a two day respite). A third group of animals began to receive squalamine (20 mg/kg/day squalamine, five days per week with a two day respite) when their serum human PSA levels reached values of 4-10 ng/mL. A fourth group of mice began squalamine treatment (20 mg/kg/day squalamine, five days per week with a two day respite)when serum human PSA values reached 20-40 ng/mL, and a fifth group began squalamine treatment when serum human PSA levels reached 100 ng/mL.
Similarly, the serum human PSA levels fell to undetectable levels with a nadir at two weeks after castration, but by week three the serum human PSA levels began to rise in all control animals. […] For animals treated with squalamine concomitant with the fall in human PSA after castration, six of ten animals were treated for 6-10 weeks. Three mice in this group never experienced a post-orchiectomy PSA nadir, and one mouse experienced an early death of unknown etiology. The remaining six animals in this group experienced a post-orchiectomy PSA nadir of less than 1 ng/mL and maintained this negligible level for the duration of squalamine therapy.
Tissue histology was carried out on the tumor masses (or the site of tumor implantation, in the instance of the animals which underwent successful squalamine treatment) to examine the distribution of integrins in these tissues. […] Thus, part of the mechanism by which squalamine successfully alters LNCaP tumor growth is by interfering with cellular integrin expression that is associated with tumor aggressiveness.

[3] = tested on: human MX-1 breast cancer line; format: in vivo
Description: These documents each are entirely incorporated herein by reference. Squalamine was examined as adjunctive therapy following a single 200 mg/kg dose of cyclophosphamide. The cyclophosphamide was injected on day 14 following implantation of the tumor, at a time when the tumors measured 65-125 μl. […] The animals were then randomized to three treatment arms (each n=27): vehicle dosing only (Intralipid); squalamine given 10 mg/kg/day in Intralipid; and squalamine given 20 mg/kg/day in Intralipid for five days a week. Animals whose tumors exceeded 2 grams at any time during the experiment were euthanized. The experiment was continued for 90 days after initiating squalamine treatment to ensure that only mice experiencing long-term cures were still alive.

[4] = tested on: transfected PS 120 fibroblast cells; test: LDH leakage from transfected cells; format: cell-based; settings: during NHE inhibiting effect
Description: In the transfected cells used in this test, it took at least 30 minutes before the NHE3 inhibition effect induced by squalamine was observed.

[5] = tested on: brush border membrane vesicle (BBMV) NHE; test: Brush border membrane vesicle (BBMV) NHE inhibition; format: biochemical; settings: tissue pretreated; 30 minutes exposure
[6] = tested on: parental 2008 cell line; test: Human ovarian tumor 2008 xenograft with cisplatin; format: in vivo, female Swiss nude mice; settings: cisplatin single dose 4 mg/kg, squalamine 2 mg/kg, days 1-10
Description: Human ovarian tumor cells were injected subcutaneously (5×10^7 cells per animal) in the mid-back region of female Swiss nude mice. The human ovarian tumors were either the parental 2008 cell line (cf. R. J. Pietras et al., Oncogene 9, 1829-1838 (1994)) or a transfected variant overexpressing the Her-2/neu receptor. The overexpression of the Her-2/neu receptor is considered to make the resulting xenograft tumors more angiogenic and less responsive to chemotherapy. After one week, animals were randomized to groups receiving no treatment (controls), a single dose of cisplatin (4 mg/kg), daily treatment with squalamine (2 mg/kg, days 1-10) or cisplatin plus squalamine. The growth of tumors was then scored on day 28 following initiation of chemotherapy. The results were very similar with the parental 2008 tumor and the transfected variant overexpressing the Her-2/neu receptor. […] In this xenograft model, the [day 28 mean treated tumor weight increase divided by the day 28 mean control tumor weight increase (T/C)] x 100% was subtracted from 100% to give the tumor growth inhibition (TGI) value for each group.

[7] = tested on: capillary beds of young chick embryos; test: Capillary regression in chick embryo capillary beds; format: in vivo; settings: one time dose 100 ng
Description: A one time dose (100 ng) of squalamine was applied to capillary beds of young chick embryos that were 2-3 days old. After five minutes, this dose of squalamine appeared to have little effect on the capillary beds.
The capillary bed also was observed after sixty minutes. At this time, it was noted that some of the capillary vessels were beginning to re-appear, but only the more major vessels were re-appearing. The small vessels were not re-appearing at that time. Four to five days after the one time squalamine treatment, the effect of the squalamine dose was no longer apparent, but newly formed capillaries in the embryos remained susceptible to squalamine induced regression for a limited time while they were newly formed.
From this test, applicants concluded that squalamine-induced capillary regression is reversible, at least with respect to certain capillaries.

[8] = tissue histology after successful squalamine treatment

Q: What does the source list for `CC(C)[C@@H](CC[C@@H](C)[C@H]1CC[C@H]2[C@@H]3[C@H](O)C[C@H]4C[C@@H](NCCCNCCCCN)CC[C@]4(C)[C@H]3CC[C@]12C)OS(=O)(=O)O` [Squalamine, squalamine]?
A: tumor masses [1]: tended to diminish and, eventually, disappear; post-orchiectomy PSA nadir ([2]; 20 mg/kg/day i.p. five days per week, 6-10 weeks from castration, six animals): less than 1 ng/mL; tumor masses ([2]; 20 mg/kg/day i.p. from castration): eventually disappeared in all six animals; expression of the integrin α6β4 [2, 8]: increase; expression of the integrin αvβ3 [2, 8]: reduction in the expression; rate of progression of the breast tumors ([3]; squalamine 10 mg/kg/day after single 200 mg/kg cyclophosphamide, all times examined): significant (P<0.01) inhibition in the rate of progression of the breast tumors; progression of the breast tumors ([3]; squalamine 20 mg/kg/day after single 200 mg/kg cyclophosphamide, only at 30 days post-initiation): significant (P<0.05) delay in progression of the breast tumors; long-term cure rate vs cyclophosphamide alone ([3]; squalamine 20 mg/kg/day for five weeks after cyclophosphamide, 90 days): doubled the long-term cure rate; tolerability of high dose ([3]; squalamine 20 mg/kg/day, discontinued after five weeks): animal weight loss and potential toxicity concerns; LDH leakage from the cell [4]: absence of lactase dehydrogenase (LDH) leakage; inhibition of BBMV NHE [5]: 51%; Day 28 Mean Tumor Size [6]: 2254 mm^3; Tumor Growth Inhibition (TGI) Index ([6]; day 28): 41%; effect on capillary beds ([7]; after five minutes): little effect; effect on capillary beds ([7]; after forty minutes): additional capillary regression was observed; effect on capillary beds ([7]; in twenty minutes): the capillary bed appeared to be disappearing
